ChEMBL document CHEMBL1201862, “PubChem BioAssay data set” (2004)
The source made the active and inactive calls.

What was measured:
[1] = target: Mitogen-activated protein kinase 1 (Homo sapiens, UniProt P28482); assay type: functional
[2] = target: Tyrosine-protein kinase FRK (Homo sapiens, UniProt P42685); assay type: functional;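 further: FRK tested as one member of a kinome panel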
[3] = target: Macrophage colony-stimulating factor 1 receptor (Homo sapiens, UniProt P07333); assay type: functional;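 further: value comes from the Navigating the Kinome screening panel, CSF1R member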
[4] = target: Dual specificity protein kinase CLK4 (Homo sapiens, UniProt Q9HAZ1); assay type: functional
[5] = target: Tyrosine-protein kinase ABL1 (Homo sapiens, UniProt P00519); assay type: functional
[6] = target: Vascular endothelial growth factor receptor 1 (Homo sapiens, UniProt P17948); assay type: functional;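 further: measured within a kinome-wide profiling panel, FLT1 as the panel member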
[7] = target: Receptor tyrosine-protein kinase erbB-4 (Homo sapiens, UniProt Q15303); assay type: functional;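 further: ERBB4 member of a kinome-wide kinase profiling panel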
Chain of Receptor tyrosine-protein kinase erbB-4 (Q15303 whole entry): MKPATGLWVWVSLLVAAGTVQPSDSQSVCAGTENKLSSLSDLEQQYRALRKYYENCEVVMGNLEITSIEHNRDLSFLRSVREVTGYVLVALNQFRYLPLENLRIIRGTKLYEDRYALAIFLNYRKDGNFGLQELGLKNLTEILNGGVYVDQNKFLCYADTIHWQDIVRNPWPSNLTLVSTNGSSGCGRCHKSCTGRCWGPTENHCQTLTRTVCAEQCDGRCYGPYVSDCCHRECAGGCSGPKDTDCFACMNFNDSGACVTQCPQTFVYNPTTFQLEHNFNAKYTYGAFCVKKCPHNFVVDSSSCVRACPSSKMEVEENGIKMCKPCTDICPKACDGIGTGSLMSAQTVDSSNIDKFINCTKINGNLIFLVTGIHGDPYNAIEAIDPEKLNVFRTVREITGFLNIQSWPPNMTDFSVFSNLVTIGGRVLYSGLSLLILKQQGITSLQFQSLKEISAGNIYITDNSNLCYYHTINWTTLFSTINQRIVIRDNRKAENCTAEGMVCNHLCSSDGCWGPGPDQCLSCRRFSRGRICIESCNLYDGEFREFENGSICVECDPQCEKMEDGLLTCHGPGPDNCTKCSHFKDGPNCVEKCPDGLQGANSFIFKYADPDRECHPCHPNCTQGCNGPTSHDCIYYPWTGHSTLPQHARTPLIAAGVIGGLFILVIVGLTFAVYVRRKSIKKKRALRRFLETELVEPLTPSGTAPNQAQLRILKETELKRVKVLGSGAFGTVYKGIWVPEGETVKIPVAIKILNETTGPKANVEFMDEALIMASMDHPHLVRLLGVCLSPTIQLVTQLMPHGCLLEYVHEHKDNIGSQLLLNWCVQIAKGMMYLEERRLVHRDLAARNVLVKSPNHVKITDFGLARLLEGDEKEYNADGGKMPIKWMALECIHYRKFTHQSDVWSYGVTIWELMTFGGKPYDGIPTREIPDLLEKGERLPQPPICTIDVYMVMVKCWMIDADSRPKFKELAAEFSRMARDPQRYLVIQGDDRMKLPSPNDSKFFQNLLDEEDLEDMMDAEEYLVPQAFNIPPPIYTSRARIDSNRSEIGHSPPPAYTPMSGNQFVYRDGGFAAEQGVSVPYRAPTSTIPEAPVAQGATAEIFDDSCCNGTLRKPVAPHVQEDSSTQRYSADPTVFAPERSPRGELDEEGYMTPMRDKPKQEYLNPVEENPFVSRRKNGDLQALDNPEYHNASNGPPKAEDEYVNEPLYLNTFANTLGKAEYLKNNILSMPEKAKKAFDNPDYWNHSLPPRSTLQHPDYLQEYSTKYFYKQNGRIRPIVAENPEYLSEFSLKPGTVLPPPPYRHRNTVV

[8] = target: Ribosomal protein S6 kinase alpha-5 (Homo sapiens, UniProt O75582); assay type: functional
Focal adhesion kinase 1 = Focal adhesion kinase 1 (Homo sapiens, UniProt Q05397); assay type: functional;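 further: measured as one member of a kinome panel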
[9] = target: 5'-AMP-activated protein kinase catalytic subunit alpha-1 (Homo sapiens, UniProt Q13131); assay type: functional
[10] = target: Tyrosine-protein kinase JAK3 (Homo sapiens, UniProt P52333); assay type: functional
[11] = target: Fibroblast growth factor receptor 1 (Homo sapiens, UniProt P11362); assay type: functional
[12] = target: Calcium/calmodulin-dependent protein kinase type II subunit delta (Homo sapiens, UniProt Q13557); assay type: functional
[13] = target: Serine/threonine-protein kinase Chk1 (Homo sapiens, UniProt O14757); assay type: functional;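 further: measured as one member of a kinome-wide kinase profiling panel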
[14] = target: Serine/threonine-protein kinase TAO1 (Homo sapiens, UniProt Q7L7X3); assay type: functional
[15] = target: Megakaryocyte-associated tyrosine-protein kinase (Homo sapiens, UniProt P42679); assay type: functional;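 further: affinity measured as one member of a kinase panel (Navigating the Kinome) against MATK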
[16] = target: Cyclin-dependent kinase 5 (Homo sapiens, UniProt Q00535); assay type: functional;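 further: CDK5 measured as one member of a kinase profiling panel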
Chain of Cyclin-dependent kinase 5 (Q00535 whole entry): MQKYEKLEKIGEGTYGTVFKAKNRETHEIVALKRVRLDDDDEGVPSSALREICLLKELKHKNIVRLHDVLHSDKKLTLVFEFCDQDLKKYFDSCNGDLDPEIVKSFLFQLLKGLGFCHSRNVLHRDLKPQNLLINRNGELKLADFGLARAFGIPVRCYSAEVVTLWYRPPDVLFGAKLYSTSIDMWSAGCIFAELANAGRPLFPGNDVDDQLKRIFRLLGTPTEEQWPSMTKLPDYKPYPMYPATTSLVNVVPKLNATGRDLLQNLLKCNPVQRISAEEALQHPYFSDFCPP

[17] = target: MAP/microtubule affinity-regulating kinase 3 (Homo sapiens, UniProt P27448); assay type: functional;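 further: MARK3 affinity measured as one member of a kinome panel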
[18] = target: Epidermal growth factor receptor (Homo sapiens, UniProt P00533)
Aurora kinase A = Aurora kinase A (Homo sapiens, UniProt O14965); assay type: functional;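 further: value from the Navigating the Kinome kinase panel profiling, panel entry STK6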
[19] = target: Mast/stem cell growth factor receptor Kit (Homo sapiens, UniProt P10721); assay type: functional;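 further: KIT entry within a kinase panel assay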
[20] = target: ALK tyrosine kinase receptor (Homo sapiens, UniProt Q9UM73); assay type: functional;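 further: ALK tested as one member of a kinase panel screen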
[21] = target: Mitogen-activated protein kinase 12 (Homo sapiens, UniProt P53778); assay type: functional;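 further: measured as one member of a kinome-wide kinase profiling panel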
[22] = target: Ribosomal protein S6 kinase alpha-3 (Homo sapiens, UniProt P51812); assay type: functional;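 further: measured within a kinome-wide profiling panel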
Chain of Ribosomal protein S6 kinase alpha-3 (P51812 whole entry): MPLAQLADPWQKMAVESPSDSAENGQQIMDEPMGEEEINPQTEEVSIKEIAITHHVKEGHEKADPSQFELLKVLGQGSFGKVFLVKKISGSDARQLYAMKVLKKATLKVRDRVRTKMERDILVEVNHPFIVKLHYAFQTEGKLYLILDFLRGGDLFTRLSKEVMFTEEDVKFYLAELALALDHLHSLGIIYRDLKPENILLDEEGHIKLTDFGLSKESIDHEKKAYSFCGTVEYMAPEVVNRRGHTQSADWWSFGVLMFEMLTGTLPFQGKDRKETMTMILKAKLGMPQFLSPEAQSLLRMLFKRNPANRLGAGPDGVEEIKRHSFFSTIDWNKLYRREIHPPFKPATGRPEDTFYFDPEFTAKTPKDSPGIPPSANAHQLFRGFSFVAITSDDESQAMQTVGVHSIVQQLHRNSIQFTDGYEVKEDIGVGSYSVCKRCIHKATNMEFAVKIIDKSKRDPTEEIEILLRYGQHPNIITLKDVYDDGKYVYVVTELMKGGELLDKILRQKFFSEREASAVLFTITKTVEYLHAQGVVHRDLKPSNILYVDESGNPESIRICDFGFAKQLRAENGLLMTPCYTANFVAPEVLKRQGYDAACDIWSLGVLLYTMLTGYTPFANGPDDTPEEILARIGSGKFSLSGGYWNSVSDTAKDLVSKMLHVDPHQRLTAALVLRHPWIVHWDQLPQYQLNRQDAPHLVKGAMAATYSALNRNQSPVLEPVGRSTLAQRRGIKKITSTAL

[23] = target: Tyrosine-protein kinase BTK (Homo sapiens, UniProt Q06187); assay type: functional
[24] = target: Mitogen-activated protein kinase 8 (Homo sapiens, UniProt P45983); assay type: functional;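 further: value comes from one member of a kinome-wide kinase profiling panel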
[25] = target: Serine/threonine-protein kinase PLK3 (Homo sapiens, UniProt Q9H4B4); assay type: functional
[26] = target: Protein kinase C gamma type (Homo sapiens, UniProt P05129); assay type: functional
[27] = target: Insulin-like growth factor 1 receptor (Homo sapiens, UniProt P08069); assay: Navigating the Kinome. Panel member name: IGF1R; assay type: functional
[28] = target: Serine/threonine-protein kinase PLK4 (Homo sapiens, UniProt O00444); assay type: functional;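 further: PLK4 measured as one member of a kinome-wide kinase profiling panel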
[29] = target: Interleukin-1 receptor-associated kinase 4 (Homo sapiens, UniProt Q9NWZ3); assay type: functional
[30] = target: RAC-gamma serine/threonine-protein kinase (Homo sapiens, UniProt Q9Y243); assay type: functional
[31] = target: Casein kinase I isoform alpha (Homo sapiens, UniProt P48729); assay type: functional
Chain of Casein kinase I isoform alpha (P48729 whole entry, canonical isoform): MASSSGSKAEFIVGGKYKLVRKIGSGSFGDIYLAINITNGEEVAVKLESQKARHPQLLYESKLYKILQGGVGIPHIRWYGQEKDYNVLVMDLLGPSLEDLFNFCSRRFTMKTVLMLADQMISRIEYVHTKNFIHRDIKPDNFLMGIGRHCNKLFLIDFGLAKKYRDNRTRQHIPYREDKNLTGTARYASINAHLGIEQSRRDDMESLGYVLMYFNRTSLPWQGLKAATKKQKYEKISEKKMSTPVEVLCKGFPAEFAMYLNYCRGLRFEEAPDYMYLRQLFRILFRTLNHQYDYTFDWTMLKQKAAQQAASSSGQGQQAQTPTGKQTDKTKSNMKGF

[32] = target: Serine/threonine-protein kinase PAK 1 (Homo sapiens, UniProt Q13153); assay type: functional
[33] = target: Serine/threonine-protein kinase pim-2 (Homo sapiens, UniProt Q9P1W9); assay type: functional;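 further: value comes from a broad kinase panel profiling study in which PIM2 was one of the panel members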
[34] = target: Serine/threonine-protein kinase 17A (Homo sapiens, UniProt Q9UEE5); assay type: functional
[35] = target: Proto-oncogene tyrosine-protein kinase ROS (Homo sapiens, UniProt P08922); assay type: functional;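 further: ROS1 tested as one member of a kinome-wide kinase panel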
[36] = target: Fibroblast growth factor receptor 3 (Homo sapiens, UniProt P22607); assay type: functional
[37] = target: Maternal embryonic leucine zipper kinase (Homo sapiens, UniProt Q14680); assay type: functional
Chain of Maternal embryonic leucine zipper kinase (Q14680 whole entry): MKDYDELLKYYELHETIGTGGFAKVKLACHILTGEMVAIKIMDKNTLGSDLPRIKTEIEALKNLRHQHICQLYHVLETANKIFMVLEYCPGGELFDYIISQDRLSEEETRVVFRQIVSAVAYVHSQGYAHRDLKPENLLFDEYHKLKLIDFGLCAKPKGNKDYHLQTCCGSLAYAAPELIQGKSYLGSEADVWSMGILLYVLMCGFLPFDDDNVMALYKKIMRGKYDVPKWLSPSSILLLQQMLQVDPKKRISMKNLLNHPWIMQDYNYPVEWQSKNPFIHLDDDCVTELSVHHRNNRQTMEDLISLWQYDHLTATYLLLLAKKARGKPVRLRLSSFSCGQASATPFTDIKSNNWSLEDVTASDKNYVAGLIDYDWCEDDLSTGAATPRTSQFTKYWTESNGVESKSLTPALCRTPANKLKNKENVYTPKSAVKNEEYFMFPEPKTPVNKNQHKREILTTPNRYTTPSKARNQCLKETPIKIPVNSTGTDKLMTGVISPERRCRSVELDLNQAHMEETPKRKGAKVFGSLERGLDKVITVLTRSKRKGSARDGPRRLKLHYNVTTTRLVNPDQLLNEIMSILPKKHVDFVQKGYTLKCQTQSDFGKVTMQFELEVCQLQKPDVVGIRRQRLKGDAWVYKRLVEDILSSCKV

SRSF protein kinase 1 = SRSF protein kinase 1 (Homo sapiens, UniProt Q96SB4); assay type: functional;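 further: measured as one member of a kinome-wide kinase profiling panel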
Chain of SRSF protein kinase 1 (Q96SB4 whole entry): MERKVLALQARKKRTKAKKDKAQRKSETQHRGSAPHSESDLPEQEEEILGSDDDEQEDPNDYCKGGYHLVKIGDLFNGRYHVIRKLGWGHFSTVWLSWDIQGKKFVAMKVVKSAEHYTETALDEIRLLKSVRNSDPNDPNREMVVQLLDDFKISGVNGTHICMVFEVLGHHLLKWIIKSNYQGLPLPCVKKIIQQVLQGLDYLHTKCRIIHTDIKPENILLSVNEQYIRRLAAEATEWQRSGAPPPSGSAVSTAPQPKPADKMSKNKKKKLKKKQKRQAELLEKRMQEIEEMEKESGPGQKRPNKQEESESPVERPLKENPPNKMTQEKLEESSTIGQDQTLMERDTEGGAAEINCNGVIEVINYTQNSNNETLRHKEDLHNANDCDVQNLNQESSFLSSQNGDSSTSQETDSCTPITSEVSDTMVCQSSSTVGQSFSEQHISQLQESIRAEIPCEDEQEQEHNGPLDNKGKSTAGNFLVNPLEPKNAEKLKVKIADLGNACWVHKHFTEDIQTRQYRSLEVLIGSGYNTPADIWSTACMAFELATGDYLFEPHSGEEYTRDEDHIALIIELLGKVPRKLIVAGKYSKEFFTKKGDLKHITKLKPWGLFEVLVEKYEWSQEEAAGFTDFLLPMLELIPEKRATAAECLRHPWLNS

[38] = target: Mitogen-activated protein kinase 13 (Homo sapiens, UniProt O15264); assay type: functional
[39] = target: Serine/threonine-protein kinase DCLK1 (Homo sapiens, UniProt O15075); assay type: functional
[40] = target: Serine/threonine-protein kinase Nek2 (Homo sapiens, UniProt P51955); assay type: functional
[41] = target: Cyclin-dependent kinase 1 (Homo sapiens, UniProt P06493); assay type: functional;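 further: Kinome-wide panel profiling, with the target listed as panel member CDC2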
[42] = target: Serine/threonine-protein kinase PLK1 (Homo sapiens, UniProt P53350); assay type: functional;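 further: PLK1 measured as one member of a kinome-wide profiling panel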
Chain of Serine/threonine-protein kinase PLK1 (P53350 whole entry, the tested form may be a part): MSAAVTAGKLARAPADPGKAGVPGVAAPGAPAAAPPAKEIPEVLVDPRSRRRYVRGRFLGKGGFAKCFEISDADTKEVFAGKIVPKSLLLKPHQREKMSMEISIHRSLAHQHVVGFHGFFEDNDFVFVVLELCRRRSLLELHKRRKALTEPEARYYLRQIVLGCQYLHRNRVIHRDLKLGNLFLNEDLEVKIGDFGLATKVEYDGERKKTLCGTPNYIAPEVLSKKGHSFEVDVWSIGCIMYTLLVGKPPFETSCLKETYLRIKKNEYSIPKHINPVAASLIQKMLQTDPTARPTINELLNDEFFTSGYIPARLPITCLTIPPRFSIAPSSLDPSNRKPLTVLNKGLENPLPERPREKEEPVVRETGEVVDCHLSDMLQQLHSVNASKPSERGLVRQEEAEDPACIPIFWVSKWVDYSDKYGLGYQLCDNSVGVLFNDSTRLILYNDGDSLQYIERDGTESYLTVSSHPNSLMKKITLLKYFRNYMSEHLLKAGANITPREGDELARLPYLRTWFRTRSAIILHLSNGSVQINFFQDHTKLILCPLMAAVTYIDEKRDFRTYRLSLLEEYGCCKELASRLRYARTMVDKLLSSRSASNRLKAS

LIM domain kinase 1 = LIM domain kinase 1 (Homo sapiens, UniProt P53667); assay: Navigating the Kinome. Panel member name: LIMK1; assay type: functional
[43] = target: MAP kinase-interacting serine/threonine-protein kinase 2 (Homo sapiens, UniProt Q9HBH9); assay type: functional
Chain of MAP kinase-interacting serine/threonine-protein kinase 2 (Q9HBH9 whole entry): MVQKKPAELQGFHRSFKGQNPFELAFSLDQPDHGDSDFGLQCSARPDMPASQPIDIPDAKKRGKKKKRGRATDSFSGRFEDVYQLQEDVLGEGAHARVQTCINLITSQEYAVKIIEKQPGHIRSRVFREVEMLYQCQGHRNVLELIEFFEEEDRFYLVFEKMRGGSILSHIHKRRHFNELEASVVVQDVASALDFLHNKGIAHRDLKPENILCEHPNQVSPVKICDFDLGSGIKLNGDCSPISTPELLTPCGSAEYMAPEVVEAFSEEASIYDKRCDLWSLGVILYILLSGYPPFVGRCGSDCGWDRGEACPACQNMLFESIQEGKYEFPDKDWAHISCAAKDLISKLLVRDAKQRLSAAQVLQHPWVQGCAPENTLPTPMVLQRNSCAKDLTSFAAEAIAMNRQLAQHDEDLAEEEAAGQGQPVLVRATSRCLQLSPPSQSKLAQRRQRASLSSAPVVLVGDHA

## NC(=O)Cn1cc(-c2cc(-c3cc4ccccc4s3)c3[nH]ncc3c2)c2nc(N)ncc21
[1]
  Ki: > 7940 nM (inactive)
[2]
  Ki: > 2510 nM (inactive)
[3]
  Ki: > 2510 nM (inactive)
[4]
  Ki: 25.1 nM (active)
[5]
  Ki: > 631 nM (inactive)
[6]
  Ki: > 398 nM (inactive)
[7]
  Ki: > 3980 nM (inactive)
[8]
  Ki: > 2000 nM (inactive)
Focal adhesion kinase 1
  Ki: > 1580 nM (inactive)
[9]
  Ki: 631 nM (active)
[10]
  Ki: > 1580 nM (inactive)
[11]
  Ki: > 5010 nM (inactive)
[12]
  Ki: 3160 nM (active)
[13]
  Ki: > 7940 nM (inactive)
[14]
  Ki: 2510 nM (active)
[15]
  Ki: > 2000 nM (inactive)
[16]
  Ki: 794 nM (active)
[17]
  Ki: 398 nM (active)
[18]
  Ki: > 2000 nM (inactive)
Aurora kinase A
  Ki: 1260 nM (active)
[19]
  Ki: > 1260 nM (inactive)
[20]
  Ki: > 1260 nM (inactive)
[21]
  Ki: 5010 nM (active)
[22]
  Ki: 5010 nM (active)
[23]
  Ki: > 1260 nM (inactive)
[24]
  Ki: 126 nM (active)
[25]
  Ki: > 7940 nM (inactive)
[26]
  Ki: 1580 nM (active)
[27]
  Ki: > 2000 nM (inactive)
[28]
  Ki: 200 nM (active)
[29]
  Ki: > 10000 nM (inactive)
[30]
  Ki: > 10000 nM (inactive)
[31]
  Ki: > 6310 nM (inactive)
[32]
  Ki: 3980 nM (active)
[33]
  Ki: > 1580 nM (inactive)
[34]
  Ki: 251 nM (active)
[35]
  Ki: > 2000 nM (inactive)
[36]
  Ki: > 2000 nM (inactive)
[37]
  Ki: > 1580 nM (inactive)
SRSF protein kinase 1
  Ki: 2000 nM (active)
[38]
  Ki: 794 nM (active)
[39]
  Ki: > 10000 nM (inactive)
[40]
  Ki: > 10000 nM (inactive)
[41]
  Ki: 1580 nM (active)
[42]
  Ki: > 7940 nM (inactive)
LIM domain kinase 1
  Ki: 3980 nM (active)
[43]
  Ki: 100 nM (active)
